Assay results published in patent US12215111B2, “Imidazopyridazine IL-17 inhibitor compounds” (Janssen Pharmaceutica NV, priority 2021, dated 2025).

Legend:
[1] = tested on: IL-17A-induced G-CSF production in human normal keratinocyte (NHK); assay: NHK assay: IL-17A-induced G-CSF production in normal human keratinocytes; assay type: cell-based; settings: Homo sapiens, Keratinocyte; IL-17A 5 ng/mL, 24 h at 37° C., G-CSF by HTRF; simple average if tested more than once
Method: IL-17A acts directly on keratinocytes through binding to dimeric receptor IL-17RA/RC and drives the production of a number of inflammatory mediators known to be elevated in psoriasis lesional tissue. IL-17A small molecule inhibitors that block the IL-17A to interact with IL-17R would inhibit the IL-17A signaling in its targeted cells such as keratinocytes. The compound functional activity is evaluated for its impact on IL-17A-induced G-CSF production in human normal keratinocyte (NHK).
Adult normal human keratinocytes are cultured in keratinocyte growth medium (Lonza) in a flask till reaching ˜90% confluence, then cells are transferred to a 384-well plate at density of 3000-4000 cell/well. Recombinant human IL-17A (Gibco PHC9174) is pre-incubated with titrated compound or DMSO for 1 h at rt then added to the cell culture plate. The final concentration of IL-17A is 5 ng/mL and DMSO is 0.2%, in the culture containing 5% FBS. Cells are cultured/treated for 24 h at 37° C. Supernatants are collected and G-CSF production is measured through HTRF technology using Human G-CSF Kit (CisBio). G-CSF concentration was extrapolated from the standard curve and IC50 is determined using GraphPad Prism. Cell viability is also evaluated using CellTiter-Glo kit (Promega) and effect of compound on cell viability is compared to DMSO control.

[2] = target: IL-17A(FLAG-Tagged): IL-17RA(His-Tagged) (Homo sapiens, UniProt Q16552, K93Q); assay: IL-17A(FLAG-tagged):IL-17RA(His-tagged) binding disruption Eu-HTRF assay, Protocol 2; settings: FLAG tagged IL-17A at 2× final concentration (1 nM); simple average if tested more than once
Sequence of UniProt Q16552 (Q16552 with tags, fused parts or gaps K93Q): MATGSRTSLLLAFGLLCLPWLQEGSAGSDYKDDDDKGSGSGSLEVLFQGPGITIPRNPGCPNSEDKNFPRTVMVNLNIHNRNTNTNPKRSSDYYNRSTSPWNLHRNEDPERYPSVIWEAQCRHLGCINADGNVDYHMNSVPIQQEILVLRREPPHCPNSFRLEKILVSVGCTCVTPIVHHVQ
Source text: IL-17A(FLAG-Tagged): IL-17RA(His-Tagged) Binding Disruption Eu-HTRF Assay
An antibody directed against the FLAG tag of IL-17A (SEQ ID NO:1) is labeled with the HTRF donor chromophore (Europium-cryptate). IL-17A is present as a dimer that is “locked into” this quaternary structure due to the formation of loop-spanning […] disulfide bridges. The construct of IL-17RA used in the assay excludes the outer-membrane portion of the receptor and is fused to a C-terminal 10×His tag (SEQ ID NO:2). An antibody directed against the His tag of the IL-17RA chimera is labeled with the HTRF acceptor chromophore (“D2”). The fluorescence-resonance energy transfer (FRET) depends on the vicinity of the donor chromophore to the acceptor, and interruption of the binding between the IL-17A and IL-17RA causes the reduction/loss of FRET. Therefore, this assay allows to evaluate the compound effect on the binding IL-17A and IL-17RA by monitoring the fluorescence intensity of donor vs acceptor. The assay was run using either Protocol 1 or Protocol 2 described below.
Protocol 2. 40 nl of 2-fold serial diluted compound solution for total 22 dilution points is added into each well of a 1536-well, white, low-volume, non-binding plate (Greiner #782904), then 2 μl of FLAG tagged IL-17A at 2× final concentration (1 nM) in solution of PBS+0.01% Triton-X100 is added to each well. The assay plate is briefly centrifuged then incubated for 1 h at rt. A mixed solution is prepared containing 2×5 nM 10HIS×IL-17RA, 2×2.5 nM Eu-anti-FLAG (CISBIO), 2×5 nM D2-anti-HIS (CISBIO) in PBS+0.01% Triton-X100+200 mM Potassium Fluoride (Sigma 60238) and […] of mix is added to each well of the assay plate. The plate is briefly centrifuged then incubated for 2 h at rt. The HTRF intensities at the wavelength of donor (615 nm) and acceptor (665 nm) are measured using BMG Pherastar. The ratio between intensities at two wavelengths is calculated and plotted against the compound concentration and the data is fitted to a one-site competition model to yield IC50 of the compound.

IC50 [2] | Structure (SMILES) | IC50 [1]
< 4 µM | COCCC(c1cnn2cc([C@@H](NC(=O)c3nonc3C)C3CCC(F)(F)CC3)nc2c1)N1C[C@@H](C(F)(F)F)NC1=O (single isomer, unassigned) [Example 40, N—((S)—(4,4-Difluorocyclohexyl)(7-((R*)-3-methoxy-1-((S)-2-oxo-4-(trifluoromethyl)imidazolidin-1-yl)propyl)imidazo[1,2-b]pyridazin-2-yl)methyl)-4-methyl-1,2,5-oxadiazole-3-carboxamide] | < 4 µM
< 4 µM | CC(C)n1nccc1C(=O)N[C@H](c1cn2ncc(CN3CC4(CC(F)(F)C4)NC3=O)cc2n1)C1CCC(F)(F)CC1 [Example 46, (S)—N-((7-((2,2-Difluoro-6-oxo-5,7-diazaspiro[3.4]octan-7-yl)methyl)imidazo[1,2-b]pyridazin-2-yl)(4,4-difluorocyclohexyl)methyl)-1-isopropyl-1H-pyrazole-5-carboxamide] | 4 to 10 µM
< 4 µM | COCC[C@H](c1cnn2cc([C@@H](NC(=O)c3nonc3C3CC3)C3CCC(F)(F)CC3)nc2c1)N1C[C@@H](C(F)(F)F)NC1=O [Example 41, 4-Cyclopropyl-N—((S)—(4,4-difluorocyclohexyl)(7-((R)-3-methoxy-1-((S)-2-oxo-4-(trifluoromethyl)imidazolidin-1-yl)propyl)imidazo[1,2-b]pyridazin-2-yl)methyl)-1,2,5-oxadiazole-3-carboxamide] | < 4 µM
< 4 µM | Cc1nonc1C(=O)N[C@@H](CC(C)(C)C(F)(F)F)c1cn2ncc([C@@H](COC3CC3)N3C[C@@H](C(F)(F)F)NC3=O)cc2n1 [Example 37] | < 4 µM
< 4 µM | Cc1nonc1C(=O)N[C@@H](COC(C)(C)C(F)(F)F)c1cn2ncc([C@@H](COC3CC3)N3C[C@@H](C(F)(F)F)NC3=O)cc2n1 [Example 45] | < 4 µM
< 4 µM | COCCC(c1cnn2cc([C@@H](NC(=O)c3nonc3OC)C3CCC(F)(F)CC3)nc2c1)N1C[C@@H](C(F)(F)F)NC1=O (single isomer, unassigned) [Example 42, N—((S)—(4,4-Difluorocyclohexyl)(7-((R*)-3-methoxy-1-((S)-2-oxo-4-(trifluoromethyl)imidazolidin-1-yl)propyl)imidazo[1,2-b]pyridazin-2-yl)methyl)-4-methoxy-1,2,5-oxadiazole-3-carboxamide] | < 4 µM
< 4 µM | COCC(c1cnn2cc([C@H](COC(C)(C)C(F)(F)F)NC(=O)c3nonc3C)nc2c1)N1C[C@@](C)(C(F)(F)F)NC1=O (some centres unmarked) [Example 23] | < 4 µM
< 4 µM | COC[C@H](c1cnn2cc([C@@H](NC(=O)c3nonc3C)C3CCC(F)(F)CC3)nc2c1)N1C[C@@H](C(F)F)NC1=O [Example 26, N—((S)—(4,4-Difluorocyclohexyl)(7-((S)-1-((S)-4-(difluoromethyl)-2-oxoimidazolidin-1-yl)-2-methoxyethyl)imidazo[1,2-b]pyridazin-2-yl)methyl)-4-methyl-1,2,5-oxadiazole-3-carboxamide] | < 4 µM
< 4 µM | CC(C)n1nccc1C(=O)N[C@H](c1cn2ncc([C@@H](COC3CC3)N3C[C@@H](C(F)(F)F)NC3=O)cc2n1)C1CCC(F)(F)CC1 (single isomer, unassigned) [Example 43] | < 4 µM
< 4 µM | Cc1nonc1C(=O)N[C@@H](CCC(C)(C)C(F)(F)F)c1cn2ncc(CN3C[C@](C)(C(F)(F)F)NC3=O)cc2n1 [Example 49, 4-Methyl-N—((S)-5,5,5-trifluoro-4,4-dimethyl-1-(7-(((R)-4-methyl-2-oxo-4-(trifluoromethyl)imidazolidin-1-yl)methyl)imidazo[1,2-b]pyridazin-2-yl)pentyl)-1,2,5-oxadiazole-3-carboxamide] | < 4 µM
